Reference: PubChem BioAssay (NCI)
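Test compounds were applied to cells in 96-well plates for 48 hours at 5 doses. TGI denotes the concentration required for complete inhibition of growth.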

Legend:
Test in all cases: inhibition of tumour cell growth, NCI panel, 48 h
786-0 renal = system: 786-0 renal
A498 renal = system: A498 renal
A549 NSCLC = system: A549 NSCLC
BT-549 breast = system: BT-549 breast
CAKI-1 renal = system: CAKI-1 renal
CCRF-CEM leukemia = system: CCRF-CEM leukemia
COLO 205 colon = system: COLO 205 colon
DU-145 prostate = system: DU-145 prostate
EKVX NSCLC = system: EKVX NSCLC
HCT-116 colon = system: HCT-116 colon
HCT-15 colon = system: HCT-15 colon
HL-60(TB) leukemia = system: HL-60(TB) leukemia
HOP-62 NSCLC = system: HOP-62 NSCLC
HS 578T breast = system: HS 578T breast
HT29 colon = system: HT29 colon
IGROV1 ovarian = system: IGROV1 ovarian
K-562 leukemia = system: K-562 leukemia
KM12 colon = system: KM12 colon
LOX IMVI melanoma = system: LOX IMVI melanoma
M14 melanoma = system: M14 melanoma
MALME-3M melanoma = system: MALME-3M melanoma
MCF7 breast = system: MCF7 breast
MDA-MB-231 breast = system: MDA-MB-231 breast
MDA-MB-435 = system: MDA-MB-435
MDA-N = system: MDA-N
MOLT-4 leukemia = system: MOLT-4 leukemia
NCI-H226 lung = system: NCI-H226 lung
NCI-H460 lung = system: NCI-H460 lung
NCI-H522 lung = system: NCI-H522 lung
NCI/ADR-RES ovarian = system: NCI/ADR-RES ovarian
OVCAR-3 ovarian = system: OVCAR-3 ovarian
OVCAR-4 ovarian = system: OVCAR-4 ovarian
OVCAR-5 ovarian = system: OVCAR-5 ovarian
OVCAR-8 ovarian = system: OVCAR-8 ovarian
PC-3 prostate = system: PC-3 prostate
RPMI-8226 leukemia = system: RPMI-8226 leukemia
RXF 393 renal = system: RXF 393 renal
SF-268 CNS = system: SF-268 CNS
SF-295 CNS = system: SF-295 CNS
SF-539 CNS = system: SF-539 CNS
SK-MEL-2 melanoma = system: SK-MEL-2 melanoma
SK-MEL-28 melanoma = system: SK-MEL-28 melanoma
SK-MEL-5 melanoma = system: SK-MEL-5 melanoma
SK-OV-3 ovarian = system: SK-OV-3 ovarian
SN12C renal = system: SN12C renal
SNB-19 CNS = system: SNB-19 CNS
SNB-75 CNS = system: SNB-75 CNS
SR leukemia = system: SR leukemia
SW-620 colon = system: SW-620 colon
T-47D breast = system: T-47D breast
TK-10 renal = system: TK-10 renal
U251 CNS = system: U251 CNS
UACC-257 melanoma = system: UACC-257 melanoma
UACC-62 melanoma = system: UACC-62 melanoma
UO-31 renal = system: UO-31 renal
ACHN renal = system: ACHN renal
HCC-2998 colon = system: HCC-2998 colon
HOP-92 NSCLC = system: HOP-92 NSCLC
NCI-H23 lung = system: NCI-H23 lung

Measured: TGI

Cc1c(NC(=S)NN)c(=O)n(-c2ccccc2)n1C
not listed: ACHN renal | HCC-2998 colon | HOP-92 NSCLC | NCI-H23 lung
> 100 µM: all other assays above

CC1CC(C)C(O)C(C2CC(CC(=O)NC3CCCCC3)CC(=O)O2)C1 (centres undefined)
not listed: BT-549 breast | SK-MEL-2 melanoma | SK-OV-3 ovarian | UACC-62 melanoma | UO-31 renal
> 100 µM: all other assays above
